In patent publication US6413970B1, “Pharmaceutical composition for treating viral diseases” (UCB S.A., priority 1996, dated 2002):
Structures can show the parent of a compound that is named as a salt.

How the values were obtained:
Format in all cases: cell-based
[1] = tested on: respiratory syncytial virus (RSV); assay: RSV-specific mRNA (SH gene) expression in RSV-treated human PMN, RT-PCR; conditions: human PMN 1×10^6/ml, RSV 1 m.o.i., cetirizine 100-, 0.1-, 0.01 μg/10^6 PMN, 2 hours and 16 hours at 37° C., FIG. 2
Method: (§1) Human granulocytes were isolated from 200 ml of heparinized blood (15 U ml) from healthy donors separated on a Ficoll-metrizoate gradient followed by dextran sedimentation and washed twice at 300 g. This method led to more than 95% pure PMN. The cells were diluted to a final density of 1×10^6 PMN.
(§2) Virus preparation was performed as described by R. ARNOLD et al. in Immunology 82, 126-133 (1994). For crude preparation, respiratory syncytial virus (RSV), Long Stain (ATCC), was grown and titrated in HEP-2 cells. The RSV titre was determined in a plaque-forming unit (PFU) assay. The stock titre of the virus pool used in the study was 5×10^6 PFU/ml. The stock solution was stored at −70° C. until use. Interleukin-8 (IL-8) levels were under the detection limit in the stock solution, as analysed by enzyme-linked immuno sorbent assay (ELISA). The absence of mycoplasma infection was verified by microplasma-specific PCR. […]
The analysis of RSV-specific genomic RNA was performed by coupled reverse transcription and polymerase chain reaction PCR detection of RSV-genomic-RNA encoding for the small hydrophobic protein (SH) of RSV as described previously by R. ARNOLD et al. in Immunology 82, 126-133 (1994). […] Expression of genomic RSVSH RNA was analysed after reverse transcription with sense primers and PCR amplification of the cDNA transcripts. […]

[2] = tested on: ongoing IL-8 release induced by RSV, human PMN; assay: Ongoing IL-8 release induced by RSV in human PMN, delayed cetirizine addition, ELISA
Method: as §1, §2
(§3) PMN were suspended in RPMI medium at a concentration of 1×10^6/ml. […] Culture supernatants were collected and analyzed for their IL-8 content. IL-8 release was determined using a sandwich ELISA according to the method indicated hereinbefore. […] After addition of p-nitrophenylphosphate (15 mg/ml) for quantification, an ELISA reader and for calculation Mikrotek software (SLT Labinstruments, Crailsheim, Germany) were used. […]

[3] = tested on: RSV-induced IL-8 release from human PMN; assay: RSV-induced IL-8 release from human PMN, ELISA
Method: as §1, §2, §3

`O=C(O)COCCN1CCN(C(c2ccccc2)c2ccc(Cl)cc2)CC1` (racemic) [cetirizine dihydrochloride, 2-[2-[4-[(4-chlorophenyl)phenylmethyl]-1-piperazinyl]ethoxy]-acetic acid] was tested, and the “RSV-specific mRNA expression of the small hydrophobic (SH) gene” value [1] was “inhibits RSV-specific mRNA expression”, the “Down regulation of RSV-induced IL-8 release, concentration range of strongest effect” value ([2]; cetirizine concentrations >0.01 μg/ml and <10 μg/ml, strongest when added at the onset of RSV treatment) was “most pronounced” and the “ongoing IL-8 release by RSV” value ([2]; human PMN 1×10^6/ml, RSV 1 m.o.i., cetirizine 100 μg, 10 μg, 0.01 μg added immediately, 30, 60 or 90 minutes after onset of RSV treatment, total 2 hours at 37° C., FIG. 4A-D) was “down regulates an ongoing IL-8 release by RSV”. The “RSV-induced IL-8 release at the stated concentration range” value ([3]; cetirizine at concentrations <0.01 μg/ml but >100 μg/ml (so in the source), similar after incubation up to 24 hours and RSV up to 5 m.o.i.) was “significant reduction in RSV-induced IL-8 release” and the “RSV-induced IL-8 release” value ([3]; human PMN 1×10^6/ml, total incubation 2 hours at 37° C., cetirizine 100-0.01 μg/ml, dose-dependent, 8 independent experiments, FIG. 3) was “down-regulated the RSV-induced IL-8 release”.
